Laboratory results from article PMC8156151 (The European Respiratory Journal, 2021).

How the values were obtained:
Format in all cases: in vivo, human
Osteopontin = experiment: Plasma biomarker osteopontin; details: for Osteopontin raw data, Mean (SD) / Osteopontin least square means % baseline±SEM: IPF patients
Method: (§1) All patients, investigators, sites and study sponsor personnel were blinded to the study group assignments throughout the study. Patients underwent study-specific assessments on days 2, 3, 7, 14 and 15, and a post-study assessment was carried out 26–30 days after the last day of the study period. Assessments included vital signs (supine blood pressure, pulse, oxygen saturation, oral temperature and respiratory rate), spirometry, 12-lead ECG, physical examination, laboratory safety screen (haematology, biochemistry, urinalysis and urinary drugs of abuse screen) and blood sampling for PK measurements. All adverse events and concomitant medications were recorded from the time of the screening visit until the post-study follow-up visit. BAL was performed at day −1 (24 h before the first dose) and at day 14 (2 h after the last dose). The BAL procedure was performed as per international guidelines. Briefly, 240 mL of 0.9% saline at room temperature was instilled in 40 mL aliquots into the right middle lobe and aspirated by suction after each aliquot.
(§2) BAL cells were separated from fluid by centrifugation, and cells were collected, stained with antibodies (supplementary material) and then fixed before analysis using a LSR Fortessa flow cytometer (Becton Dickinson, Franklin Lakes, NJ, USA). Data were analysed using FlowJo software (Tree Star, Ashland, OR, USA). Macrophages were identified as having high side scatter properties and human leukocyte antigen-DR positivity. Gal-3 expression (mean fluorescence intensity) was determined from the macrophage gate (supplementary figures S1 and S2). […] Samples were analysed by magnetic Luminex assay (R&D Systems, Minneapolis, MN, USA) or ELISA.
(§3) For part 2 of the study, placebos were combined from the three dose-specific cohorts into a pooled control group (n=9). For alveolar macrophage Gal-3 expression and the plasma biomarkers, ANCOVA was performed for percentage of baseline ((day 14/day 1)×100). The ANCOVA model included effects for treatment group and baseline (day 1) value. […] An additional analysis including dose as a continuous covariate was also performed. The Pearson correlation coefficient (r) and associated p-value were calculated for percentage of baseline and day 14 values between plasma biomarkers and alveolar macrophage Gal-3 expression. […] The analysis is exploratory and there was no pre-planned adjustment for multiple testing; the study was not powered for this. Alveolar macrophage Gal-3 expression was considered the primary exploratory analysis with the pre-selected biomarkers secondary. A Bonferroni correction for multiple testing of the secondary end-points comparing the 10 mg group with placebo gives a critical value of 0.0063. Data are presented as the difference in least square means with 95% confidence interval and p-value unless otherwise stated. All analyses were performed using SAS version 9.4 (SAS Institute, Cary, NC, USA). […]

healthy subjects = experiment: Safety and tolerability (TEAEs), part 1, single inhaled dose
Method: Subjects were discharged 24 h post-dose (day 2) provided there were no safety concerns, and returned for three outpatient visits on days 3, 8 and 14 post-dose, with a post-study follow-up between days 26 and 30. Safety and PK assessments were made at predetermined time-points.
Following completion of dosing for the final subject in each dosing cohort, an interim dose review meeting was held with a safety committee consisting of the principal investigator, medical monitor, pharmacokineticist and statistician to review the safety, tolerability and PK data (study design schematic shown in figure 1). The study statistician and pharmacokineticist were unblinded at the end of each cohort in order to conduct the analyses required for dose review decisions. The primary end-point was the safety and tolerability of single or multiple doses of TD139 in healthy subjects or IPF patients, respectively.

Periostin = experiment: Plasma biomarker periostin; details: for Periostin raw data, Mean (SD) / Periostin least square means % baseline±SEM: IPF patients
Method: as §1, §2, §3

IL-13 = experiment: Plasma biomarker IL-13; details: for IL-13 raw data, Mean (SD) / IL-13 least square means % baseline±SEM: IPF patients
Method: as §1, §2, §3

MMP-7 = experiment: Plasma biomarker MMP-7; details: for MMP-7 raw data, Mean (SD) / MMP-7 least square means % baseline±SEM: IPF patients
Method: as §1, §2, §3

[1] = healthy subjects, single inhaled 0.15 mg
[2] = healthy subjects, single inhaled 1.5 mg
[3] = healthy subjects, single inhaled 3 mg
[4] = healthy subjects, single inhaled 10 mg
[5] = healthy subjects, single inhaled 20 mg
[6] = healthy subjects, single inhaled 50 mg

OC[C@H]1O[C@@H](S[C@@H]2O[C@H](CO)[C@H](O)[C@H](n3cc(-c4cccc(F)c4)nn3)[C@H]2O)[C@H](O)[C@@H](n2cc(-c3cccc(F)c3)nn2)[C@H]1O [TD139]
Osteopontin difference in least square means % baseline (95% CI) (Osteopontin; 10 mg vs placebo, ANCOVA): −26.8 (−88.0–34.3) % baseline | Osteopontin raw data, Mean (SD) (Osteopontin; Day 14, 0.3 mg): 37756 (20451.51) pg/ml | Osteopontin raw data, Mean (SD) (Osteopontin; Day 14, 3 mg): 31032.4 (13230.48) pg/ml | Osteopontin raw data, Mean (SD) (Osteopontin; Day 14, 10 mg): 48630.5 (37737.51) pg/ml | Osteopontin least square means % baseline±SEM (Osteopontin; day 14, 0.3 mg once daily): 106.2±23.9 % baseline | Osteopontin least square means % baseline±SEM (Osteopontin; day 14, 3 mg once daily): 84±23.7 % baseline | Osteopontin least square means % baseline±SEM (Osteopontin; day 14, 10 mg once daily): 91.3±23.4 % baseline | safety and tolerability (healthy subjects; healthy subjects, single doses up to 50 mg): safe and well tolerated | Subjects reporting ≥1 TEAE: Serious TEAE (healthy subjects; [1]): 0 n (%) | Subjects reporting ≥1 TEAE: TEAE (healthy subjects; [1]): 0 n (%) | Subjects reporting ≥1 TEAE: TEAE leading to withdrawal (healthy subjects; [1]): 0 n (%) | Subjects with TEAE by relationship to study IMP: Almost definite (healthy subjects; [1]): 0 n (%) | Subjects with TEAE by relationship to study IMP: Possible (healthy subjects; [1]): 0 n (%) | Subjects with TEAE by relationship to study IMP: Probable (healthy subjects; [1]): 0 n (%) | Subjects with TEAE by relationship to study IMP: Unlikely (healthy subjects; [1]): 0 n (%) | Subjects with TEAE by severity: Mild (healthy subjects; [1]): 0 n (%) | TEAEs (healthy subjects; [1]): 0 n | Subjects reporting ≥1 TEAE: Serious TEAE (healthy subjects; [2]): 0 n (%) | Subjects reporting ≥1 TEAE: TEAE (healthy subjects; [2]): 0 n (%) | Subjects reporting ≥1 TEAE: TEAE leading to withdrawal (healthy subjects; [2]): 0 n (%) | Subjects with TEAE by relationship to study IMP: Almost definite (healthy subjects; [2]): 0 n (%) | Subjects with TEAE by relationship to study IMP: Possible (healthy subjects; [2]): 0 n (%) | Subjects with TEAE by relationship to study IMP: Probable (healthy subjects; [2]): 0 n (%) | Subjects with TEAE by relationship to study IMP: Unlikely (healthy subjects; [2]): 0 n (%) | Subjects with TEAE by severity: Mild (healthy subjects; [2]): 0 n (%) | TEAEs (healthy subjects; [2]): 0 n | Subjects reporting ≥1 TEAE: Serious TEAE (healthy subjects; [3]): 0 n (%) | Subjects reporting ≥1 TEAE: TEAE (healthy subjects; [3]): 2 (50.0) n (%) | Subjects reporting ≥1 TEAE: TEAE leading to withdrawal (healthy subjects; [3]): 0 n (%) | Subjects with TEAE by relationship to study IMP: Almost definite (healthy subjects; [3]): 1 (25.0) n (%) | Subjects with TEAE by relationship to study IMP: Possible (healthy subjects; [3]): 0 n (%) | Subjects with TEAE by relationship to study IMP: Probable (healthy subjects; [3]): 0 n (%) | Subjects with TEAE by relationship to study IMP: Unlikely (healthy subjects; [3]): 1 (25.0) n (%) | Subjects with TEAE by severity: Mild (healthy subjects; [3]): 2 (50.0) n (%) | TEAEs (healthy subjects; [3]): 2 n | Subjects reporting ≥1 TEAE: Serious TEAE (healthy subjects; [4]): 0 n (%) | Subjects reporting ≥1 TEAE: TEAE (healthy subjects; [4]): 3 (75.0) n (%) | Subjects reporting ≥1 TEAE: TEAE leading to withdrawal (healthy subjects; [4]): 0 n (%) | Subjects with TEAE by relationship to study IMP: Almost definite (healthy subjects; [4]): 3 (75.0) n (%) | Subjects with TEAE by relationship to study IMP: Possible (healthy subjects; [4]): 2 (50.0) n (%) | Subjects with TEAE by relationship to study IMP: Probable (healthy subjects; [4]): 0 n (%) | Subjects with TEAE by relationship to study IMP: Unlikely (healthy subjects; [4]): 0 n (%) | Subjects with TEAE by severity: Mild (healthy subjects; [4]): 3 (75.0) n (%) | TEAEs (healthy subjects; [4]): 7 n | Subjects reporting ≥1 TEAE: Serious TEAE (healthy subjects; [5]): 0 n (%) | Subjects reporting ≥1 TEAE: TEAE (healthy subjects; [5]): 4 (100.0) n (%) | Subjects reporting ≥1 TEAE: TEAE leading to withdrawal (healthy subjects; [5]): 0 n (%) | Subjects with TEAE by relationship to study IMP: Almost definite (healthy subjects; [5]): 4 (100.0) n (%) | Subjects with TEAE by relationship to study IMP: Possible (healthy subjects; [5]): 1 (25.0) n (%) | Subjects with TEAE by relationship to study IMP: Probable (healthy subjects; [5]): 1 (25.0) n (%) | Subjects with TEAE by relationship to study IMP: Unlikely (healthy subjects; [5]): 0 n (%) | Subjects with TEAE by severity: Mild (healthy subjects; [5]): 4 (100.0) n (%) | TEAEs (healthy subjects; [5]): 7 n | Subjects reporting ≥1 TEAE: Serious TEAE (healthy subjects; [6]): 0 n (%) | Subjects reporting ≥1 TEAE: TEAE (healthy subjects; [6]): 4 (100.0) n (%) | Subjects reporting ≥1 TEAE: TEAE leading to withdrawal (healthy subjects; [6]): 0 n (%) | Subjects with TEAE by relationship to study IMP: Almost definite (healthy subjects; [6]): 4 (100.0) n (%) | Subjects with TEAE by relationship to study IMP: Possible (healthy subjects; [6]): 3 (75.0) n (%) | Subjects with TEAE by relationship to study IMP: Probable (healthy subjects; [6]): 0 n (%) | Subjects with TEAE by relationship to study IMP: Unlikely (healthy subjects; [6]): 0 n (%) | Subjects with TEAE by severity: Mild (healthy subjects; [6]): 4 (100.0) n (%) | TEAEs (healthy subjects; [6]): 10 n | biochemistry, haematology, vital signs or 12-lead ECG data (healthy subjects; part 1, healthy subjects): no clinically significant safety findings or treatment- or dose-related changes observed | incidence of cough (healthy subjects; part 1, healthy subjects): 11.1% | incidence of mild dysgeusia (most commonly occurring TEAE) (healthy subjects; part 1, healthy subjects): 36.1% | Periostin difference in least square means % baseline (95% CI) (Periostin; 10 mg vs placebo, ANCOVA): −5.4 (−18.8–8.0) % baseline | Periostin raw data, Mean (SD) (Periostin; Day 14, 0.3 mg): 125952.3 (17487.63) pg/ml | Periostin raw data, Mean (SD) (Periostin; Day 14, 3 mg): 142019.1 (30390.08) pg/ml | Periostin raw data, Mean (SD) (Periostin; Day 14, 10 mg): 108663.7 (24686.82) pg/ml | Periostin least square means % baseline±SEM (Periostin; day 14, 0.3 mg once daily): 114.0±5.3 % baseline | Periostin least square means % baseline±SEM (Periostin; day 14, 3 mg once daily): 99.3±5.2 % baseline | Periostin least square means % baseline±SEM (Periostin; day 14, 10 mg once daily): 93.1±5.0 % baseline | IL-13 difference in least square means % baseline (95% CI) (IL-13; 10 mg vs placebo, ANCOVA): −7.6 (−30.4–15.2) % baseline | IL-13 raw data, Mean (SD) (IL-13; Day 14, 0.3 mg): 1219.4 (155.7) pg/ml | IL-13 raw data, Mean (SD) (IL-13; Day 14, 3 mg): 1476.6 (140.99) pg/ml | IL-13 raw data, Mean (SD) (IL-13; Day 14, 10 mg): 1358.8 (149.34) pg/ml | IL-13 least square means % baseline±SEM (IL-13; day 14, 0.3 mg once daily): 87.4±8.8 % baseline | IL-13 least square means % baseline±SEM (IL-13; day 14, 3 mg once daily): 100.4±9.5 % baseline | IL-13 least square means % baseline±SEM (IL-13; day 14, 10 mg once daily): 97.6±8.8 % baseline | MMP-7 difference in least square means % baseline (95% CI) (MMP-7; 10 mg vs placebo, ANCOVA): −82.0 (−237.9–73.9) % baseline | MMP-7 raw data, Mean (SD) (MMP-7; Day 14, 0.3 mg): 447.6 (205.21) pg/ml | MMP-7 raw data, Mean (SD) (MMP-7; Day 14, 3 mg): 1849.2 (2244.12) pg/ml | MMP-7 raw data, Mean (SD) (MMP-7; Day 14, 10 mg): 1130.6 (939.62) pg/ml | MMP-7 least square means % baseline±SEM (MMP-7; day 14, 0.3 mg once daily): 79.3±59.2 % baseline | MMP-7 least square means % baseline±SEM (MMP-7; day 14, 3 mg once daily): 82.3±58.4 % baseline | MMP-7 least square means % baseline±SEM (MMP-7; day 14, 10 mg once daily): 84.4±58.7 % baseline
